According to patent US9113629B2, “4-amino-6-(4-substituted-phenyl)-picolinates and 6-amino-2-(4-substituted-phenyl)-pyrimidine-4-carboxylates and their use as herbicides” (DOW AGROSCIENCES LLC, priority 2013, dated 2015):

Assays:
Experiment in all cases: Post-emergent Test III, herbicidal activity in wheat and barley
Assay type in all cases: in vivo
[1] = test system: PHAMI: lesser canary grass (Phalaris minor); settings: for pest or weed control at 35 g/ha / pest or weed control at 70 g/ha / pest or weed control at 140 g/ha: Phalaris minor, post-emergence, 504 h, read-out: Visual Growth Reduction (%) 21 Days After Application PHAMI; for pest or weed control at 35 g/ha: 35 g ai/ha; for pest or weed control at 70 g/ha: 70 g ai/ha; for pest or weed control at 140 g/ha: 140 g ai/ha; for GR50 PHAMI / GR80 PHAMI: probit analysis, 21 days after application; for GR50 PHAMI: dose for growth reduction of 50 percent; for GR80 PHAMI: dose for growth reduction of 80 percent
Procedure, shortened: (§1)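 Plants at the second to third true-leaf stage, grown in a greenhouse at about 18/17 °C with a 14 h photoperiod, were sprayed post-emergence at 187 L/ha with the high rate and ½× to 1/16× serial dilutions in an acetone/DMSO/crop-oil/surfactant carrier. Injury was rated visually at 21 d on a 0–100% scale, and GR20–GR90 were derived by probit analysis.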

[2] = test system: CIRAR: Canada thistle (Cirsium arvense); settings: Table 8, 21 d; for pest or weed control at 35 g/ha / pest or weed control at 70 g/ha: Cirsium arvense, post-emergence, 504 h, post-emergent, read-out: Visual Growth Reduction (%) 21 Days After Application CIRAR; for pest or weed control at 35 g/ha: 35 g ai/ha; for pest or weed control at 70 g/ha: 70 g ai/ha; for GR50 CIRAR: dose for 50 percent growth reduction; for GR50 CIRAR / GR80 CIRAR: probit analysis; for GR80 CIRAR: dose for 80 percent growth reduction
Procedure, shortened: as §1

[3] = test system: GALAP: cleavers (Galium aparine); settings: Table 8, 21 d; for pest or weed control at 35 g/ha / pest or weed control at 70 g/ha: Galium aparine, post-emergence, 504 h, post-emergent, read-out: Visual Growth Reduction (%) 21 Days After Application GALAP; for pest or weed control at 35 g/ha: 35 g ai/ha; for pest or weed control at 70 g/ha: 70 g ai/ha; for GR50 GALAP: dose for 50 percent growth reduction; for GR50 GALAP / GR80 GALAP: probit analysis; for GR80 GALAP: dose for 80 percent growth reduction
Procedure, shortened: as §1

SMILES	pest or weed control at 35 g/ha [1] [%]	pest or weed control at 70 g/ha [1] [%]	pest or weed control at 140 g/ha [1] [%]	GR50 PHAMI [1] [g ai/ha]	GR80 PHAMI [1] [g ai/ha]	pest or weed control at 35 g/ha [2] [%]	pest or weed control at 70 g/ha [2] [%]	GR50 CIRAR [2] [g ai/ha]	GR80 CIRAR [2] [g ai/ha]	pest or weed control at 35 g/ha [3] [%]	pest or weed control at 70 g/ha [3] [%]	GR50 GALAP [3] [g ai/ha]	GR80 GALAP [3] [g ai/ha]
Nc1cc(-c2ccc(Br)c(F)c2F)nc(C(=O)O)c1Cl [Compound 91]	30 to 44	30 to 44	30 to 44	>140	>140								
Nc1cc(-c2ccc(Br)c(F)c2)nc(C(=O)O)c1Cl [Compound 110, 4-Amino-6-(4-bromo-3-fluorophenyl)-3-chloropicolinic acid]						75 to 84	75 to 84	19	52	95 to 100	95 to 100	1	1
COc1c(N)nc(-c2ccc(Br)c(F)c2)nc1C(=O)O [Compound 113, 6-Amino-2-(4-bromo-3-fluorophenyl)-5-methoxypyrimidine-4-carboxylic acid]						75 to 84	85 to 94	7	33	95 to 100	95 to 100	5	12
Nc1c(F)c(-c2ccc(Cl)c(F)c2)nc(C(=O)O)c1Cl [Compound 217]	85 to 94	85 to 94	85 to 94	11	30								
